# Results: PubChem BioAssay AID1259246 (Broad Institute, 2017)
# Inconclusive results are not listed. The source made the active and inactive calls.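 How the source made its calls: active means valid dose-response fit whose half-maximal growth-inhibiting concentration is at or below a set limit above the top tested dose; inconclusive means flat fit with effect between 30 and 70%, or poor fit; inactive means half-maximal concentration above a set limit.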
# Experiment: antibacterial activity against Clostridioides difficile – 10-point retest, dose response (AID 1259246)
# Conditions: Clostridioides difficile clinical isolate growth, OD600, 24 h; at 60 µM (top of the series)
row,Compound,"activity change, negative = inhibition"
1,COc1ccc(CNC(=O)C[C@H]2C[C@@H]3c4cc(NC(=O)C5CCC5)ccc4O[C@@H]3[C@@H](CO)O2)cc1,-1.06% (inactive)
2,CO[C@@H]1CN(C)C(=O)c2ccc(NC(=O)c3ccc(-c4ccccc4)cc3)cc2OC[C@@H](C)NC[C@H]1C,25.2% (inactive)
3,C[C@@H]1CN([C@H](C)CO)S(=O)(=O)c2ccc(/C=C/c3ccccc3)cc2O[C@H]1CN(C)Cc1ccccc1,2.59% (inactive)
4,C[C@H](CO)N1C[C@H](C)[C@@H](CN(C)S(=O)(=O)c2ccc(Cl)cc2)Oc2c(NC(=O)Nc3ccc(C(F)(F)F)cc3)cccc2C1=O,25% (inactive)
5,CN(C)CC(=O)N1[C@@H](C#N)[C@H](c2ccc(C#CC3CCCCC3)cc2)[C@@H]1CO,0.345% (inactive)
6,C[C@@H]1CN([C@H](C)CO)C(=O)Cc2cc(NC(=O)CCCN(C)C)ccc2O[C@@H]1CN(C)Cc1ccc(-c2ccccc2)cc1,28.6% (inactive)

# Same assay, conditions: Clostridioides difficile clinical isolate growth, OD600, 24 h; at 120 µM (top of the series)
row,Compound,"activity change, negative = inhibition"
1,C[C@@H]1CN([C@H](C)CO)S(=O)(=O)c2ccc(C#Cc3ccccc3F)cc2O[C@@H]1CN(C)CC1CCOCC1,19.4% (inactive)
2,COc1cccc(NC(=O)N(C)C[C@@H]2Oc3cc(/C=C/c4ccccc4)ccc3S(=O)(=O)N([C@@H](C)CO)C[C@H]2C)c1,19.6% (inactive)
3,C[C@H]1CN([C@@H](C)CO)C(=O)Cc2cc(NC(=O)C3CC3)ccc2O[C@H]1CN(C)Cc1ccc(-c2ccccc2)cc1,18.3% (inactive)
4,C[C@@H]1CN([C@@H](C)CO)C(=O)c2cc(NC(=O)Nc3cccc4ccccc34)ccc2O[C@@H](C)CCCCO[C@H]1CN(C)S(=O)(=O)c1ccc(F)cc1,34.1% (inactive)
5,CC(C)CC#Cc1ccc2c(c1)O[C@H](CN(C)Cc1ccc3c(c1)OCO3)[C@H](C)CN([C@@H](C)CO)S2(=O)=O,26.5% (inactive)
6,C[C@@H]1CN([C@@H](C)CO)S(=O)(=O)c2ccc(/C=C/c3ccccc3)cc2O[C@H]1CN(C)C(=O)c1ccncc1,14.4% (inactive)
7,C[C@@H]1CCCCO[C@H](CN(C)S(=O)(=O)c2ccc(F)cc2)[C@@H](C)CN([C@@H](C)CO)C(=O)c2cc(NC(=O)Nc3cccc4ccccc34)ccc2O1,19.1% (inactive)
8,COc1ccc(CN(C)C[C@@H]2OCCCC[C@@H](C)Oc3ccc(NC(=O)Nc4cccc5ccccc45)cc3C(=O)N([C@H](C)CO)C[C@H]2C)cc1,44.3% (inactive)
9,CO[C@@H]1CN(C)C(=O)c2ccc(NC(=O)c3nc4ccccc4s3)cc2OC[C@@H](C)N(Cc2cccnc2)C[C@H]1C,14.9% (inactive)
10,C[C@H]1CN([C@@H](C)CO)S(=O)(=O)c2ccc(C#CC3CCCCC3)cc2O[C@@H]1CN(C)Cc1cccnc1,20.8% (inactive)
11,C[C@@H]1CN([C@@H](C)CO)C(=O)Cc2cc(NC(=O)C3CCCCC3)ccc2O[C@@H]1CN(C)Cc1ccc(-c2ccccc2)cc1,19% (inactive)
12,O=C(N[C@H]1CC[C@H](CCNS(=O)(=O)c2ccc(Cl)cc2)O[C@H]1CO)c1cnccn1,-7.94% (inactive)
13,CO[C@@H]1CN(C)C(=O)c2cc(NC(=O)c3nc4ccccc4s3)ccc2OC[C@H](C)N(Cc2ccncc2)C[C@@H]1C,13.2% (inactive)
14,C[C@H]1CCCCO[C@@H](CN(C)S(=O)(=O)c2ccc(F)cc2)[C@@H](C)CN([C@@H](C)CO)C(=O)c2cc(NC(=O)Nc3cccc4ccccc34)ccc2O1,42.1% (inactive)
15,COc1ccccc1CNC(=O)C[C@@H]1C[C@@H]2c3cc(NC(=O)NC4CCCC4)ccc3O[C@@H]2[C@@H](CO)O1,2.23% (inactive)
16,C[C@H](CO)N1C[C@H](C)[C@H](CN(C)Cc2ccc(Oc3ccccc3)cc2)Oc2ccc(NC(=O)C3CC3)cc2CC1=O,12.9% (inactive)
17,C[C@H](CO)N1C[C@H](C)[C@@H](CN(C)C(=O)Nc2ccc(C(F)(F)F)cc2)Oc2c(NC(=O)Nc3cccc4ccccc34)cccc2C1=O,36.8% (inactive)
18,O=C(C[C@H]1C[C@H]2c3cc(NC(=O)C4CCC4)ccc3O[C@H]2[C@H](CO)O1)NCc1ccc(Cl)cc1,6.93% (inactive)
19,C[C@@H]1CN([C@@H](C)CO)C(=O)Cc2cc(NC(=O)CCCN(C)C)ccc2O[C@H]1CN(C)Cc1ccncc1,-4.05% (inactive)
20,C[C@H]1CN([C@@H](C)CO)S(=O)(=O)c2ccc(C#CC3CCCCC3)cc2O[C@H]1CN(C)Cc1cccnc1,19.1% (inactive)
21,COc1ccc(S(=O)(=O)Nc2cccc3c2O[C@@H](CN(C)S(=O)(=O)c2c(C)noc2C)[C@H](C)CN([C@H](C)CO)C3=O)cc1,-3.81% (inactive)
22,CNC[C@@H]1Oc2ccc(NC(=O)CCCN(C)C)cc2CC(=O)N([C@@H](C)CO)C[C@H]1C,-5.36% (inactive)

row,Compound,"activity change, negative = inhibition"
1,CC(C)CC#Cc1ccc2c(c1)O[C@@H](CN(C)Cc1ccc3c(c1)OCO3)[C@H](C)CN([C@@H](C)CO)S2(=O)=O,11% (inactive)
2,C[C@@H]1CN([C@H](C)CO)C(=O)c2cccc(NC(=O)Nc3ccc(C(F)(F)F)cc3)c2O[C@H]1CN(C)C(=O)NC1CCCCC1,28.2% (inactive)
3,C/C=C/c1ccc2c(c1)O[C@H](CN(C)Cc1ccc(F)cc1)[C@H](C)CN([C@@H](C)CO)S2(=O)=O,7.75% (inactive)
4,C[C@@H]1CN([C@H](C)CO)C(=O)c2cc(NC(=O)Nc3ccc4c(c3)OCO4)ccc2O[C@@H](C)CCCCO[C@H]1CN(C)S(=O)(=O)c1ccc(F)cc1,13.1% (inactive)
5,C[C@H](CO)N1C[C@H](C)[C@@H](CN(C)C(=O)NC2CCCCC2)Oc2c(NC(=O)Nc3cccc4ccccc34)cccc2C1=O,23.7% (inactive)
6,COc1ccc(S(=O)(=O)N(C)C[C@H]2Oc3c(NC(=O)Nc4ccc5c(c4)OCO5)cccc3C(=O)N([C@@H](C)CO)C[C@H]2C)cc1,11.1% (inactive)
7,CO[C@H]1CN(C)C(=O)c2ccc(NC(=O)c3nc4ccccc4s3)cc2OC[C@H](C)NC[C@@H]1C,-6.99% (inactive)
8,O=C(C[C@@H]1C[C@@H]2c3cc(NC(=O)Nc4ccc(F)cc4)ccc3O[C@@H]2[C@H](CO)O1)NC1CCCCC1,-4.54% (inactive)
9,O=C(C[C@@H]1C[C@H]2c3cc(NC(=O)Nc4ccc(F)cc4)ccc3O[C@H]2[C@@H](CO)O1)NC1CCCCC1,-2.82% (inactive)
10,Cc1ccc(S(=O)(=O)N[C@@H]2CC[C@H](CCNS(=O)(=O)Cc3ccccc3)O[C@H]2CO)cc1,-2.21% (inactive)
11,C[C@H](CO)N1C[C@H](C)[C@@H](CN(C)S(=O)(=O)c2ccc(Cl)cc2)Oc2c(NC(=O)Nc3ccc(C(F)(F)F)cc3)cccc2C1=O,61.8% (inactive)
12,O=C(C[C@H]1C[C@@H]2c3cc(NC(=O)NC4CCCC4)ccc3O[C@@H]2[C@@H](CO)O1)NCc1ccc2c(c1)OCO2,-10.4% (inactive)
13,CC(C)CC#Cc1ccc2c(c1)O[C@@H](CN(C)CC1CCOCC1)[C@H](C)CN([C@@H](C)CO)S2(=O)=O,13.6% (inactive)
14,Cc1ccc(S(=O)(=O)N2C[C@@H](O)COC[C@H]3O[C@H](CC(=O)NCc4ccccc4Cl)CC[C@@H]32)cc1,13.4% (inactive)
15,C[C@@H]1CN([C@@H](C)CO)C(=O)c2cccc(NC(=O)Nc3ccc4c(c3)OCO4)c2O[C@@H]1CN(C)Cc1ccccc1,19.1% (inactive)
16,C[C@@H]1CN([C@H](C)CO)C(=O)c2cccc(NC(=O)Nc3ccccc3)c2O[C@H]1CN(C)Cc1ccc(Oc2ccccc2)cc1,17.8% (inactive)
17,C[C@@H]1CN([C@@H](C)CO)C(=O)c2ccccc2-c2ccccc2CO[C@@H]1CN(C)S(=O)(=O)c1ccc([N+](=O)[O-])cc1,35.2% (inactive)
18,CC(C)CC#Cc1ccc2c(c1)O[C@H](CN(C)Cc1ccccc1F)[C@H](C)CN([C@@H](C)CO)S2(=O)=O,26.2% (inactive)
19,C[C@H]1CN([C@@H](C)CO)C(=O)c2cccc(NC(=O)Nc3ccc(C(F)(F)F)cc3)c2O[C@@H]1CN(C)C(=O)NC1CCCCC1,19.5% (inactive)
20,C/C=C/c1ccc2c(c1)O[C@H](CN(C)CC1CCOCC1)[C@H](C)CN([C@@H](C)CO)S2(=O)=O,-1.64% (inactive)
21,CC(C)NC(=O)N(C)C[C@@H]1OCCCC[C@H](C)Oc2ccc(NC(=O)Nc3cccc4ccccc34)cc2C(=O)N([C@H](C)CO)C[C@@H]1C,60.5% (inactive)
22,CC(C)CC#Cc1ccc2c(c1)O[C@H](CN(C)Cc1ccc(F)cc1)[C@H](C)CN([C@@H](C)CO)S2(=O)=O,34.5% (inactive)

# Same assay, conditions: Clostridioides difficile clinical isolate growth, OD600, 24 h; at 135 µM (top of the series)
row,Compound,"activity change, negative = inhibition"
1,CO[C@@H]1CN(C)C(=O)c2cc(NC(=O)c3nc4ccccc4s3)ccc2OC[C@@H](C)N(Cc2ccncc2)C[C@H]1C,14.2% (inactive)
2,COc1ccc(S(=O)(=O)N(C)C[C@@H]2Oc3ccc(NC(=O)CCCN(C)C)cc3CC(=O)N([C@H](C)CO)C[C@H]2C)cc1,-7.92% (inactive)
3,CO[C@H]1CN(C)C(=O)c2cc(NC(=O)c3nc4ccccc4s3)ccc2OC[C@H](C)N(Cc2ccncc2)C[C@H]1C,20.9% (inactive)
4,O=C(C[C@H]1C[C@@H]2c3cc(NC(=O)C4CCC4)ccc3O[C@@H]2[C@@H](CO)O1)NCc1ccc2c(c1)OCO2,-9.69% (inactive)
5,C[C@@H]1CN([C@H](C)CO)C(=O)c2cccc(NC(=O)Nc3ccc4c(c3)OCO4)c2O[C@@H]1CN(C)Cc1ccc(-c2ccccc2)cc1,12.1% (inactive)
6,COc1ccccc1CNC(=O)C[C@H]1C[C@H]2c3cc(NC(=O)NC4CCCC4)ccc3O[C@H]2[C@@H](CO)O1,4.17% (inactive)
7,CO[C@H]1CN(C)C(=O)c2cc(NC(=O)c3ccccc3)ccc2OC[C@H](C)NC[C@H]1C,-3.19% (inactive)
8,C[C@@H]1CN([C@H](C)CO)C(=O)Cc2cc(N(C)C)ccc2O[C@@H]1CN(C)Cc1ccc(Oc2ccccc2)cc1,23.7% (inactive)
9,Cc1ccc(S(=O)(=O)N(C)C[C@H]2Oc3ccc(NS(C)(=O)=O)cc3C(=O)N([C@@H](C)CO)C[C@H]2C)cc1,9.46% (inactive)
